The record followed here is the supplement of paper PMC10307832.

Assay in all cases: relative viability (nuclei count vs DMSO), 5 days (fraction); higher = more cells survive
Compound in experiment [1]: CCN1CCC(CC1)N2C=C(N=N2)CNC3=CC4=C(C(=CN=C4C(=C3)Cl)C#N)NC5=CC(=C(C=C5)F)Cl [KIN001-266] + CC(=O)Nc1cccc(-n2c(=O)n(C3CC3)c(=O)c3c(Nc4ccc(I)cc4F)n(C)c(=O)c(C)c32)c1 [Trametinib] (partner 0.02 µM)
The method in brief: (§1)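 Values are medians from duplicate plates. Each reflects relative viability, defined as the nuclei count of treated wells over that of vehicle wells. Lung cancer cell lines in 1536-well plates were pin-tool dosed one day after seeding with one drug alone or with a fixed anchor-drug dose plus five library-drug doses (not always all listed) in √10 steps, then fixed, stained and imaged at 4× after 5 days.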

Compound in experiment [2]: CCN1CCC(CC1)N2C=C(N=N2)CNC3=CC4=C(C(=CN=C4C(=C3)Cl)C#N)NC5=CC(=C(C=C5)F)Cl [KIN001-266] + C[C@]1(O)C[C@@H](c2nc(-c3ccc4ccc(-c5ccccc5)nc4c3)c3c(N)nccn32)C1 [Linsitinib] (partner 1 µM)
A digest of the protocol: as §1

Compound in experiment [3]: CCN1CCC(CC1)N2C=C(N=N2)CNC3=CC4=C(C(=CN=C4C(=C3)Cl)C#N)NC5=CC(=C(C=C5)F)Cl [KIN001-266] + CS(=O)(=O)CCNCc1ccc(-c2ccc3ncnc(Nc4ccc(OCc5cccc(F)c5)c(Cl)c4)c3c2)o1 [Lapatinib] (partner 2 µM)
A digest of the protocol:
as §1

Compound in experiment [4]: CCN1CCC(CC1)N2C=C(N=N2)CNC3=CC4=C(C(=CN=C4C(=C3)Cl)C#N)NC5=CC(=C(C=C5)F)Cl [KIN001-266] + COc1cccc2cc(-c3nc([C@H]4CC[C@H](C(=O)O)CC4)n4ncnc(N)c34)[nH]c12 [OSI-027] (partner 0.5 µM)
A digest of the protocol: as §1

As to NCI-H596, the relative viability came out at 0.742 in experiment [1] (first compound 0.08 µM); 0.698 in experiment [1] (first compound 0.253 µM); 0.851 in experiment [1] (first compound 0.8 µM); 0.778 in experiment [1] (first compound 2.53 µM); 0.673 in experiment [1] (first compound 8 µM); 1.08 in experiment [2] (first compound 0.08 µM). Besides, the relative viability in experiment [2] (first compound 0.253 µM) is 1.14; in experiment [2] (first compound 0.8 µM), 1.06; in experiment [2] (first compound 2.53 µM), 1.07; in experiment [2] (first compound 8 µM), 0.812; in experiment [3] (first compound 0.08 µM), 1.09; in experiment [3] (first compound 0.253 µM), 1.07. Besides, the relative viability in experiment [3] (first compound 0.8 µM) turned out to be 1.17; in experiment [3] (first compound 2.53 µM), 1.06; in experiment [3] (first compound 8 µM), 1.01; in experiment [4] (first compound 0.08 µM), 0.858; in experiment [4] (first compound 0.253 µM) it was 0.635; in experiment [4] (first compound 0.8 µM) it was 0.616. Further, the results for the relative viability in experiment [4] (first compound 2.53 µM) and in experiment [4] (first compound 8 µM) were 0.638 and 0.529, respectively.

For NCI-H647, the relative viability in experiment [1] (first compound 0.08 µM) worked out at 0.452; in experiment [1] (first compound 0.253 µM) it was 0.443; in experiment [1] (first compound 0.8 µM) it was 0.474; in experiment [1] (first compound 2.53 µM), 0.419; in experiment [1] (first compound 8 µM), 0.375; in experiment [2] (first compound 0.08 µM), 1.31. In addition, the relative viability worked out at 1.03 in experiment [2] (first compound 0.253 µM); 1.26 in experiment [2] (first compound 0.8 µM); 1.13 in experiment [2] (first compound 2.53 µM); 1.03 in experiment [2] (first compound 8 µM); 1.04 in experiment [3] (first compound 0.08 µM); 1.07 in experiment [3] (first compound 0.253 µM). Also, the relative viability in experiment [3] (first compound 0.8 µM) turned out to be 1.11; in experiment [3] (first compound 2.53 µM), 0.876; in experiment [3] (first compound 8 µM) it was 0.818; in experiment [4] (first compound 0.08 µM) it was 0.669; in experiment [4] (first compound 0.253 µM) it was 0.691; in experiment [4] (first compound 0.8 µM), 0.577. Also, the results for the relative viability in experiment [4] (first compound 2.53 µM) and in experiment [4] (first compound 8 µM) were 0.857 and 0.544, respectively.

Consider NCI-H650, for which the relative viability was 0.982 in experiment [1] (first compound 0.08 µM); 0.974 in experiment [1] (first compound 0.253 µM); 0.942 in experiment [1] (first compound 0.8 µM); 0.944 in experiment [1] (first compound 2.53 µM); 0.979 in experiment [1] (first compound 8 µM); 0.914 in experiment [2] (first compound 0.08 µM). Besides, the relative viability amounted to 1.05 in experiment [2] (first compound 0.253 µM); 0.976 in experiment [2] (first compound 0.8 µM); 0.979 in experiment [2] (first compound 2.53 µM); 1.03 in experiment [2] (first compound 8 µM); 1.04 in experiment [3] (first compound 0.08 µM); 1.07 in experiment [3] (first compound 0.253 µM). Moreover, the relative viability in experiment [3] (first compound 0.8 µM) turned out to be 0.849; in experiment [3] (first compound 2.53 µM) it was 1.12; in experiment [3] (first compound 8 µM), 1.16; in experiment [4] (first compound 0.08 µM), 0.62; in experiment [4] (first compound 0.253 µM), 0.591; in experiment [4] (first compound 0.8 µM), 0.563. Besides, the relative viability in experiment [4] (first compound 2.53 µM) amounted to 0.493; in experiment [4] (first compound 8 µM), 0.55.

On to NCI-H661, for which the relative viability in experiment [1] (first compound 0.08 µM) is 0.566; in experiment [1] (first compound 0.253 µM), 0.624; in experiment [1] (first compound 0.8 µM) it was 0.595; in experiment [1] (first compound 2.53 µM), 0.5; in experiment [1] (first compound 8 µM) it was 0.435; in experiment [2] (first compound 0.08 µM), 0.551. Further, the relative viability is 0.514 in experiment [2] (first compound 0.253 µM); 0.537 in experiment [2] (first compound 0.8 µM); 0.515 in experiment [2] (first compound 2.53 µM); 0.425 in experiment [2] (first compound 8 µM); 0.494 in experiment [3] (first compound 0.08 µM); 0.449 in experiment [3] (first compound 0.253 µM). Besides, the relative viability in experiment [3] (first compound 0.8 µM) was found to be 0.532; in experiment [3] (first compound 2.53 µM) it was 0.438; in experiment [3] (first compound 8 µM), 0.29; in experiment [4] (first compound 0.08 µM), 0.693; in experiment [4] (first compound 0.253 µM), 0.745; in experiment [4] (first compound 0.8 µM), 0.723. The relative viability in experiment [4] (first compound 2.53 µM) stood at 0.627; in experiment [4] (first compound 8 µM), 0.514.

For the cell line NCI-H727, the relative viability in experiment [1] (first compound 0.08 µM) is 0.431; in experiment [1] (first compound 0.253 µM) it was 0.384; in experiment [1] (first compound 0.8 µM), 0.391; in experiment [1] (first compound 2.53 µM) it was 0.391; in experiment [1] (first compound 8 µM) it was 0.402; in experiment [2] (first compound 0.08 µM), 0.296. The relative viability turned out to be 0.283 in experiment [2] (first compound 0.253 µM); 0.237 in experiment [2] (first compound 0.8 µM); 0.284 in experiment [2] (first compound 2.53 µM); 0.333 in experiment [2] (first compound 8 µM); 0.821 in experiment [3] (first compound 0.08 µM); 1.1 in experiment [3] (first compound 0.253 µM). The relative viability in experiment [3] (first compound 0.8 µM) is 0.806; in experiment [3] (first compound 2.53 µM), 0.805; in experiment [3] (first compound 8 µM) it was 0.537; in experiment [4] (first compound 0.08 µM), 0.646; in experiment [4] (first compound 0.253 µM) it was 0.573; in experiment [4] (first compound 0.8 µM), 0.593. Moreover, the relative viability in experiment [4] (first compound 2.53 µM) came to 0.541; in experiment [4] (first compound 8 µM), 0.527.

For NCI-H838, the relative viability in experiment [1] (first compound 0.08 µM) was 0.535; in experiment [1] (first compound 0.253 µM), 0.494; in experiment [1] (first compound 0.8 µM), 0.557; in experiment [1] (first compound 2.53 µM), 0.465; in experiment [1] (first compound 8 µM) it was 0.385; in experiment [2] (first compound 0.08 µM), 0.979. The relative viability came out at 1.04 in experiment [2] (first compound 0.253 µM); 1.01 in experiment [2] (first compound 0.8 µM); 0.936 in experiment [2] (first compound 2.53 µM); 0.59 in experiment [2] (first compound 8 µM); 0.988 in experiment [3] (first compound 0.08 µM); 0.989 in experiment [3] (first compound 0.253 µM). Besides, the relative viability in experiment [3] (first compound 0.8 µM) amounted to 1.13; in experiment [3] (first compound 2.53 µM), 1.06; in experiment [3] (first compound 8 µM), 0.866; in experiment [4] (first compound 0.08 µM), 0.36; in experiment [4] (first compound 0.253 µM), 0.435; in experiment [4] (first compound 0.8 µM) it was 0.423. Further, the relative viability came to 0.361 in experiment [4] (first compound 2.53 µM) and 0.343 in experiment [4] (first compound 8 µM).

In the case of NCI-H1355, the relative viability amounted to 0.445 in experiment [1] (first compound 0.08 µM); 0.473 in experiment [1] (first compound 0.253 µM); 0.48 in experiment [1] (first compound 0.8 µM); 0.406 in experiment [1] (first compound 2.53 µM); 0.394 in experiment [1] (first compound 8 µM); 0.814 in experiment [2] (first compound 0.08 µM). The relative viability was 0.803 in experiment [2] (first compound 0.253 µM); 0.905 in experiment [2] (first compound 0.8 µM); 0.779 in experiment [2] (first compound 2.53 µM); 0.742 in experiment [2] (first compound 8 µM); 1.1 in experiment [3] (first compound 0.08 µM); 0.924 in experiment [3] (first compound 0.253 µM). In addition, the relative viability amounted to 1.02 in experiment [3] (first compound 0.8 µM); 1.04 in experiment [3] (first compound 2.53 µM); 0.938 in experiment [3] (first compound 8 µM); 0.476 in experiment [4] (first compound 0.08 µM); 0.426 in experiment [4] (first compound 0.253 µM); 0.4 in experiment [4] (first compound 0.8 µM). Also, the relative viability in experiment [4] (first compound 2.53 µM) was 0.373; in experiment [4] (first compound 8 µM), 0.397.
